Measurements published in publication doi:10.1101/2021.04.08.439011v1 (biorxiv, 2021).

What was measured:
Settings in all cases: 0.1 µM; binder
ULK2 = ULK2 (Homo sapiens, UniProt Q8IYT8)
KIT(V559D) = KIT(V559D) (Homo sapiens, UniProt P10721, V559D)
TRKB = TRKB (Homo sapiens, UniProt Q16620)
VPS34 = VPS34 (Homo sapiens, UniProt Q8NEB9)
RET(V804L) = RET(V804L) (Homo sapiens, UniProt P07949, V804L)
ALK = ALK (Homo sapiens, UniProt Q9UM73)
p38-delta = p38-delta (Homo sapiens, UniProt O15264)
PIKFYVE = PIKFYVE (Homo sapiens, UniProt Q9Y2I7)
Sequence of PIKFYVE (Q9Y2I7 whole entry): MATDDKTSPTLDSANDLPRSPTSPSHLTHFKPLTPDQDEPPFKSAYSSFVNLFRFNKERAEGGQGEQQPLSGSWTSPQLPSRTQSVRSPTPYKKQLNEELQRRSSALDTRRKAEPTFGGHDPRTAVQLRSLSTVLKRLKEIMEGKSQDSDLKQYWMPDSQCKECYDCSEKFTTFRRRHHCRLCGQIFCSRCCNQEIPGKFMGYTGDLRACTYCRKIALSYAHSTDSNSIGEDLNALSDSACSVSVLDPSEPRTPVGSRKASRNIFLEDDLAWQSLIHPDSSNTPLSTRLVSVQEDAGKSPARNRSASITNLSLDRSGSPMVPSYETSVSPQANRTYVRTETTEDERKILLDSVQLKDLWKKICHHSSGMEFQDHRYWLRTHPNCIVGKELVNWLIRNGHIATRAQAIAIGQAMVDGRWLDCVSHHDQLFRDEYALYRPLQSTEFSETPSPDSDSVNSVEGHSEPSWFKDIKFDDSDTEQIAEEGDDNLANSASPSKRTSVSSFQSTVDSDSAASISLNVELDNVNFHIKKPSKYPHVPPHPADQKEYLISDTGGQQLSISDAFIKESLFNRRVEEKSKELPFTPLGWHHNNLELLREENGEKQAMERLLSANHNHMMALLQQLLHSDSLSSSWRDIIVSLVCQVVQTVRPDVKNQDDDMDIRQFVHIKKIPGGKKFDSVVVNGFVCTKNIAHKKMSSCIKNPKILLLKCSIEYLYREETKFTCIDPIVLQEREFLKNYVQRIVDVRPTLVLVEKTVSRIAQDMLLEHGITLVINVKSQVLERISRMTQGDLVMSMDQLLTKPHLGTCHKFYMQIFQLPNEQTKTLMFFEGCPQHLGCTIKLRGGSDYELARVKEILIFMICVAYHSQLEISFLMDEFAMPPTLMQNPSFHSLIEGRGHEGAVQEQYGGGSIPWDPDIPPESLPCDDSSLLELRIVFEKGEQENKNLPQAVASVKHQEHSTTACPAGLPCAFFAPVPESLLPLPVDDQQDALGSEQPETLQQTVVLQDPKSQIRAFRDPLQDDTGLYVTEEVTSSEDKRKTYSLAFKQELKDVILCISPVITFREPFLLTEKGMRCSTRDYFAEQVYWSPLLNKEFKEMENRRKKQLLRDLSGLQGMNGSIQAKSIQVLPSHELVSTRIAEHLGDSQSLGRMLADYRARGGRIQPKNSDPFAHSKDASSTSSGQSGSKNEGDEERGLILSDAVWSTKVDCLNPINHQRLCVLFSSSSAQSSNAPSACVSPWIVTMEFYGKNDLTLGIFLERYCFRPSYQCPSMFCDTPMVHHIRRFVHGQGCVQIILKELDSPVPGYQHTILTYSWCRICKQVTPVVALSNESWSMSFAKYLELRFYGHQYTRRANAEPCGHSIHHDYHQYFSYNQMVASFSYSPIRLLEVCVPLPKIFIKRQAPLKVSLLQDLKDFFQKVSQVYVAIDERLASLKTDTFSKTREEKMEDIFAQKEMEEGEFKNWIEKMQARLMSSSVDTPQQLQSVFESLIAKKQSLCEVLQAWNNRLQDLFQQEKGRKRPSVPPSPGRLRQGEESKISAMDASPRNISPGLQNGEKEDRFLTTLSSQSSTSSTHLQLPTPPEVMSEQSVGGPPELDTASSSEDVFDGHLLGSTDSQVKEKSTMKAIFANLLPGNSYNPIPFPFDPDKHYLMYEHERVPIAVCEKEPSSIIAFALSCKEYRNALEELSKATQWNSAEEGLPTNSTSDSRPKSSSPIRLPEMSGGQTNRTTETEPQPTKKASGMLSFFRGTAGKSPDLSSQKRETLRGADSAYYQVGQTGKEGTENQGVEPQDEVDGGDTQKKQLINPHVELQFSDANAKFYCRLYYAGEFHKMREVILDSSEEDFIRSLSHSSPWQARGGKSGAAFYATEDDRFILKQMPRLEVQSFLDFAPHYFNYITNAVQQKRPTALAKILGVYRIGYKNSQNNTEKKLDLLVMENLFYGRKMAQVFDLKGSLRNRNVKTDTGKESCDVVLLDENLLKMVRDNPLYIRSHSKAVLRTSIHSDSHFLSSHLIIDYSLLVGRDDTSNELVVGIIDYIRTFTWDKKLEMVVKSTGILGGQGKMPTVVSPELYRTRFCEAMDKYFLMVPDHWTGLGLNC

BMPR2 = BMPR2 (Homo sapiens, UniProt Q13873)
TESK1 = TESK1 (Homo sapiens, UniProt Q15569)
Sequence of TESK1 (Q15569 whole entry): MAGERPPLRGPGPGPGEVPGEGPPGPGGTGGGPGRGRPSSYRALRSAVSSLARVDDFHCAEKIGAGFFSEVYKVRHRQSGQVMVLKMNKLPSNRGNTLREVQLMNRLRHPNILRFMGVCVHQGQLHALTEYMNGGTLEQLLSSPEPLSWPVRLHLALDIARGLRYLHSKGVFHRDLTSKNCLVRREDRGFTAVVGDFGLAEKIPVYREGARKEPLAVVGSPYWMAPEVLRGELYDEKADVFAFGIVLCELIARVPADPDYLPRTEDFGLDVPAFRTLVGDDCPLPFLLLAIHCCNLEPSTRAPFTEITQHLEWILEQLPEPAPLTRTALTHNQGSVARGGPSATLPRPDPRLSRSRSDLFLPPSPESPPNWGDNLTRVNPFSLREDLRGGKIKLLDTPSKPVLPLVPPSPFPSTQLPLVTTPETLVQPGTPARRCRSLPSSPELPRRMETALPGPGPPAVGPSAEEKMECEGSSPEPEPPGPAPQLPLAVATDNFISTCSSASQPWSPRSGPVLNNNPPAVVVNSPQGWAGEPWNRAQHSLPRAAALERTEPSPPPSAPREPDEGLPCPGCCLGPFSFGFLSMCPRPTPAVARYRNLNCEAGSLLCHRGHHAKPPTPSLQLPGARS

ACVRL1 = ACVRL1 (Homo sapiens, UniProt P37023)
PRKCD = PRKCD (Homo sapiens, UniProt Q05655)
PFTAIRE2 = PFTAIRE2 (Homo sapiens, UniProt Q96Q40)
BRAF = BRAF (Homo sapiens, UniProt P15056)
PYK2 = PYK2 (Homo sapiens, UniProt Q14289)
DCAMKL3 = DCAMKL3 (Homo sapiens, UniProt Q9C098)
Sequence of DCAMKL3 (Q9C098 whole entry): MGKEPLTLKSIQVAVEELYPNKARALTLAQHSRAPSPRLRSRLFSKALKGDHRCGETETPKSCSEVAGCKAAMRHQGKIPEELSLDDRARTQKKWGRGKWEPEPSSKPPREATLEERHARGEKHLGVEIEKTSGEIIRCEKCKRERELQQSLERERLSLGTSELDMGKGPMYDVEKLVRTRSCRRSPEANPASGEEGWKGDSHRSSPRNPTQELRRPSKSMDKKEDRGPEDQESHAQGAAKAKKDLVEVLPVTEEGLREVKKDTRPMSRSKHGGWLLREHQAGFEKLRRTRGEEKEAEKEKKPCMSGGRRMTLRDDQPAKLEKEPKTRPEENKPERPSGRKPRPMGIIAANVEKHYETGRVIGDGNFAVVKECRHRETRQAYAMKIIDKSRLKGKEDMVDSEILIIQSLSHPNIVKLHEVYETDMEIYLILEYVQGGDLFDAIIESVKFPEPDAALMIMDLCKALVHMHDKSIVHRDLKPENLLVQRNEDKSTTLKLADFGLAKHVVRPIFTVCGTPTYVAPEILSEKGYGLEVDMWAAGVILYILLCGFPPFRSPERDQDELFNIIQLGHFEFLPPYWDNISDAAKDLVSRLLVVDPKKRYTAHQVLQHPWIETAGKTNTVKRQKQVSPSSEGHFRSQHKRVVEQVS

NIK = NIK (Homo sapiens, UniProt Q99558)
PIK3CA(M1043I) = PIK3CA(M1043I) (Homo sapiens, UniProt P42336, M1043I)
LZK = LZK (Homo sapiens, UniProt O43283)
PAK6 = PAK6 (Homo sapiens, UniProt Q9NQU5)
CLK3 = CLK3 (Homo sapiens, UniProt P49761)
ERN1 = ERN1 (Homo sapiens, UniProt O75460)
IKK-epsilon = IKK-epsilon (Homo sapiens, UniProt Q14164)
MAP4K3 = MAP4K3 (Homo sapiens, UniProt Q8IVH8)
TTK = TTK (Homo sapiens, UniProt P33981)
AKT1 = AKT1 (Homo sapiens, UniProt P31749)
PAK3 = PAK3 (Homo sapiens, UniProt O75914)
Sequence of PAK3 (O75914 whole entry): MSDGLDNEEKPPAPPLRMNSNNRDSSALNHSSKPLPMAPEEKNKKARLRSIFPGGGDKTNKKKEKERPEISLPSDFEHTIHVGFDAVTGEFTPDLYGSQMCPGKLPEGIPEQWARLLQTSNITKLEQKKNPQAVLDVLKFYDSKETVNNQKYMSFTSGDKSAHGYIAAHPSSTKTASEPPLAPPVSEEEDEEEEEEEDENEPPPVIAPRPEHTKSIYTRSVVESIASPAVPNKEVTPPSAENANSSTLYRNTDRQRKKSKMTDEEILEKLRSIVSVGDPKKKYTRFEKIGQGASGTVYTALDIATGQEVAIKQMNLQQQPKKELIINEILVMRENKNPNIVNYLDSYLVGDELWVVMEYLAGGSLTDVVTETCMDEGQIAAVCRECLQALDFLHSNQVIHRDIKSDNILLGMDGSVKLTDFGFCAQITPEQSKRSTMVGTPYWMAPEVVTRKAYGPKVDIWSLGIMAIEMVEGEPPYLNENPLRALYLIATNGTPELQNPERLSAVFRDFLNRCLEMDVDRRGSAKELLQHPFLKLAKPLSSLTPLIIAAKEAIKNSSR

MATK = MATK (Homo sapiens, UniProt P42679)
PRKR = PRKR (Homo sapiens, UniProt P19525)
FLT3(D835Y) = FLT3(D835Y) (Homo sapiens, UniProt P36888, D835Y)
KIT(L576P) = KIT(L576P) (Homo sapiens, UniProt P10721, L576P)

Sequence of RET(V804L) (P07949 whole entry V804L): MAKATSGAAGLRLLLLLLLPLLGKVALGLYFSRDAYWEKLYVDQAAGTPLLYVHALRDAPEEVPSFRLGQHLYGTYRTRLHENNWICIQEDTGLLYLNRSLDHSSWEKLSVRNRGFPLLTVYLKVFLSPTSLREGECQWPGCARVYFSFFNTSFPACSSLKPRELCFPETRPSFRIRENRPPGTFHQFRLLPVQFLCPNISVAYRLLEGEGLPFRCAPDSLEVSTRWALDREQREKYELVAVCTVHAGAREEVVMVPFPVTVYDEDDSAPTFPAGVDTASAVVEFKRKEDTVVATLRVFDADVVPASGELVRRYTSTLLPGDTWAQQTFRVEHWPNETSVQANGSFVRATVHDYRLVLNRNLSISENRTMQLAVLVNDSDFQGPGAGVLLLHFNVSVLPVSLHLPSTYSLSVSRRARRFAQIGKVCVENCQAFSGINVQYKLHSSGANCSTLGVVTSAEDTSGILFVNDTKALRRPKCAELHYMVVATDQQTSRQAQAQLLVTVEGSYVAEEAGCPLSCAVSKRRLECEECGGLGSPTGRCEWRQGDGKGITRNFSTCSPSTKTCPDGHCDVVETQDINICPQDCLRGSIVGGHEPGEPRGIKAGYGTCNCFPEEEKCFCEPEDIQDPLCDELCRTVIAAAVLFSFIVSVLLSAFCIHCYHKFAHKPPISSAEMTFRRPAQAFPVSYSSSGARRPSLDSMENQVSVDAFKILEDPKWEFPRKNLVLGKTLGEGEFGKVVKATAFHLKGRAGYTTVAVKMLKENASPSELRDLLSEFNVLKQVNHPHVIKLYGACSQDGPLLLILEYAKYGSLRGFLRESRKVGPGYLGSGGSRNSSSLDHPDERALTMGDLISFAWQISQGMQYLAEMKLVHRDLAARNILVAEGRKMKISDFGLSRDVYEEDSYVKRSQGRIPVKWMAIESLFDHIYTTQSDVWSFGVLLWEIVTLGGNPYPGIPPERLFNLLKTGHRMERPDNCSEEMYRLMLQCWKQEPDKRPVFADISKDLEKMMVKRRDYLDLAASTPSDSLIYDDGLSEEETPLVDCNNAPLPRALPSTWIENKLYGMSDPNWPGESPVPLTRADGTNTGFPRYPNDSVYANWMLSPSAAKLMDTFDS

CNc1ncc2cc(-c3ccc(-c4cccc(C)n4)cc3Cl)c(=O)n(C[C@H]3OC[C@H](N)CO3)c2n1 [compound 6, G-5555]
Percent Control (ULK2): 100%
Percent Control (KIT(V559D)): 99%
Percent Control (TRKB): 100%
Percent Control (VPS34): 86%
Percent Control (RET(V804L)): 94%
Percent Control (ALK): 89%
Percent Control (p38-delta): 86%
Percent Control (PIKFYVE): 100%
Percent Control (BMPR2): 100%
Percent Control (TESK1): 83%
Percent Control (ACVRL1): 100%
Percent Control (PRKCD): 100%
Percent Control (PFTAIRE2): 100%
Percent Control (BRAF): 100%
Percent Control (PYK2): 100%
Percent Control (DCAMKL3): 29%
Percent Control (NIK): 100%
Percent Control (PIK3CA(M1043I)): 76%
Percent Control (LZK): 100%
Percent Control (PAK6): 92%
Percent Control (CLK3): 100%
Percent Control (ERN1): 92%
Percent Control (IKK-epsilon): 100%
Percent Control (MAP4K3): 85%
Percent Control (TTK): 100%
Percent Control (AKT1): 100%
Percent Control (PAK3): 100%
Percent Control (MATK): 100%
Percent Control (PRKR): 100%
Percent Control (FLT3(D835Y)): 94%
Percent Control (KIT(L576P)): 100%
